Test results: publication PMC12647918 (Nature Communications, 2025)

What was measured:
tRNA modifications = experiment: Measurement of tRNA modification levels by LC-MS/MS; format: cell-based, Human; details: K562 cells, 50 μM 5-FU
[1] = test system: RNA post-transcriptional modification enzymes (PUS1, PUS3, PUS10, TRUB1, TRUB2, DUS3L, TRMT2A, EMG1); experiment: Time-resolved SICFA, 5-FU in K562 cells; format: cell-based, Human; details: 50 µM 5-FU, from 4 h, further enhanced with prolonged treatment
TYMS [2] = biological target: T1, TYMS (Homo sapiens, UniProt P04818); experiment: Time-resolved SICFA, 5-FU in K562 cells; details: 50 µM 5-FU, 30 min, 10% fixative
T1 sequence (P04818 2-313 limits assumed): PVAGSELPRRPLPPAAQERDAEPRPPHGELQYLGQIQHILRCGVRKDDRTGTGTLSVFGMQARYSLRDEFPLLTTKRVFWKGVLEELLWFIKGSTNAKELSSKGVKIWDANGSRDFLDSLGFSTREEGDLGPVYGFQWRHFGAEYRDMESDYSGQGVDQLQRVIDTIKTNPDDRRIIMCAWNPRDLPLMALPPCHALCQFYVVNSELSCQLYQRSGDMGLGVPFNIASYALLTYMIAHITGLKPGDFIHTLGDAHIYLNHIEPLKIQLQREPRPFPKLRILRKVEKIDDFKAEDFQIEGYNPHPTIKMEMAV

CDKN1C = experiment: SICFA target identification, dasatinib; format: cell-based, Human; details: dasatinib 1 μM, 30 min
LYN = details: 1 µM dasatinib, cell lysate, kinobeads ref 26; cited from earlier work
YES1 = details: 1 µM dasatinib, cell lysate, kinobeads ref 26; cited from earlier work
RIPK2 = details: 1 µM dasatinib, cell lysate, kinobeads ref 26; cited from earlier work
RB1 = experiment: SICFA stability shift, SNS-032
[3] = test system: Methionine synthase (MTR); experiment: SICFA of MTX-treated living K562 cells; format: cell-based, Human; details: 2 µM MTX, 30 min
[4] = test system: C-1-tetrahydrofolate synthase (MTHFD1); experiment: SICFA of MTX-treated living K562 cells; format: cell-based, Human; details: 2 µM MTX, 30 min
HDAC2 = HDAC2 (Homo sapiens, UniProt Q92769); details: both methods (SICFA and PISA10)
Sequence of HDAC2 (Q92769 whole entry): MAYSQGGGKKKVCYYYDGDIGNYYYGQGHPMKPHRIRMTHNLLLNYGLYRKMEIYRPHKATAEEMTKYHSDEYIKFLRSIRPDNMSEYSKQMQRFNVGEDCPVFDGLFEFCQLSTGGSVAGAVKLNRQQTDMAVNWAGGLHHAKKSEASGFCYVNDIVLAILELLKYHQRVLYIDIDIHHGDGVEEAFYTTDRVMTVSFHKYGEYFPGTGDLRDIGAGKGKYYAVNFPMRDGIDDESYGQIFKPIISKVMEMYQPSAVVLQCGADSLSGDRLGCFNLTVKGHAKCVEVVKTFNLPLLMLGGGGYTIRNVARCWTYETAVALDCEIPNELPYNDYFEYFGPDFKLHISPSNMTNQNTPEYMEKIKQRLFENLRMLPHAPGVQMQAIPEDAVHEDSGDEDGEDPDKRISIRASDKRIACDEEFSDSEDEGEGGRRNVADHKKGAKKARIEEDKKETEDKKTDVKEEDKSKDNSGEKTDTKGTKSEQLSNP

HDAC6 = biological target: T2, HDAC6 (Homo sapiens, UniProt Q9UBN7); experiment: SICFA and PISA10 stability shift, Panobinostat; details: both methods (SICFA and PISA10)
T2 sequence (Q9UBN7 1-1215): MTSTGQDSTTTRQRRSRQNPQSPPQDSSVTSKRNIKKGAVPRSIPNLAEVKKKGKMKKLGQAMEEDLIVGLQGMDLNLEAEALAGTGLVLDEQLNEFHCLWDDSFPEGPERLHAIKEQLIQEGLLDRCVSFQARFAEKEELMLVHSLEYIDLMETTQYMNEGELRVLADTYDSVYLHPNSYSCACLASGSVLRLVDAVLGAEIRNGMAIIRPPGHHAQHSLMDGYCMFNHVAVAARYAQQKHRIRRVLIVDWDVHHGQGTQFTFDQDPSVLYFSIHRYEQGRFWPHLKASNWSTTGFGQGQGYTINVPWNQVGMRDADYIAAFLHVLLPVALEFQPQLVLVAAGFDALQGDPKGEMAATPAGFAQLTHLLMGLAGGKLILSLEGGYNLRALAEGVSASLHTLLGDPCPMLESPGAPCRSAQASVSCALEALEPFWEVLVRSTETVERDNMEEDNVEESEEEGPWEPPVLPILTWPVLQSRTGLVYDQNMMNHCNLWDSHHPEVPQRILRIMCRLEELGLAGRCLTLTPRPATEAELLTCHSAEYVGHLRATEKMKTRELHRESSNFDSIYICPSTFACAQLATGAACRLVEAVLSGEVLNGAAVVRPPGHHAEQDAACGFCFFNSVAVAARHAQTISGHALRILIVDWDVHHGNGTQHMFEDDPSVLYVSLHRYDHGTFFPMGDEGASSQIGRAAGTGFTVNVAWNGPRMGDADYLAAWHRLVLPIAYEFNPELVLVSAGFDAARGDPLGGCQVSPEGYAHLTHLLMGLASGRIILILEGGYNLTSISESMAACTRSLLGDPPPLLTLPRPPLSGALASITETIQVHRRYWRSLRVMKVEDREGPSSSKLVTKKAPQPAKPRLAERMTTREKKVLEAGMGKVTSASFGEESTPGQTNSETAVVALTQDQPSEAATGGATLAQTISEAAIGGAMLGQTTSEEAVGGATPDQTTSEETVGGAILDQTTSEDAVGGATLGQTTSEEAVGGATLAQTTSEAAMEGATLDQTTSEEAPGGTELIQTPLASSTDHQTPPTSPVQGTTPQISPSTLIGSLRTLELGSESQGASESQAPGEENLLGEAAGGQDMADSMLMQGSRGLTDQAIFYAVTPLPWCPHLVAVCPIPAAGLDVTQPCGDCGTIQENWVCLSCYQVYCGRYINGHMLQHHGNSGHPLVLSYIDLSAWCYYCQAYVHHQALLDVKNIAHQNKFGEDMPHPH

HDAC3 = HDAC3 (Homo sapiens, UniProt O15379); experiment: SICFA and PISA10 stability shift, Panobinostat; details: SICFA versus PISA10
Sequence of HDAC3 (O15379 whole entry): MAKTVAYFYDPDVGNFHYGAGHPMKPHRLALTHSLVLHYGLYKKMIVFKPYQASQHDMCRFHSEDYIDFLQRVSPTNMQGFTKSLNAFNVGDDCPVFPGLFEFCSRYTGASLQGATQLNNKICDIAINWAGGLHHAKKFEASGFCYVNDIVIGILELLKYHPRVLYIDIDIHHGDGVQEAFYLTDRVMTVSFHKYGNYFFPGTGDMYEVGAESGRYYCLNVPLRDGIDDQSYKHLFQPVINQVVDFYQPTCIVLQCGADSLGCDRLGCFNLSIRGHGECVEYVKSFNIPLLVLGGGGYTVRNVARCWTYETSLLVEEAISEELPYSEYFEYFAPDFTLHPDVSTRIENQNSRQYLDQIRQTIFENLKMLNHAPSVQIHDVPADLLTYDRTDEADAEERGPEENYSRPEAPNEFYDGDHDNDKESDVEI
Sequence of HDAC3 (Q9Y618 389-480 partner limits assumed): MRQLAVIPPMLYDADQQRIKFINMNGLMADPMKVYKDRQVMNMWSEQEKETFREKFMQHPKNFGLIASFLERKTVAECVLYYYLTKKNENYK

HDAC8 = biological target: T3, HDAC8 (Homo sapiens, UniProt Q9BY41); experiment: SICFA and PISA10 stability shift, Panobinostat; details: SICFA versus PISA10
T3 sequence (Q9BY41 1-377): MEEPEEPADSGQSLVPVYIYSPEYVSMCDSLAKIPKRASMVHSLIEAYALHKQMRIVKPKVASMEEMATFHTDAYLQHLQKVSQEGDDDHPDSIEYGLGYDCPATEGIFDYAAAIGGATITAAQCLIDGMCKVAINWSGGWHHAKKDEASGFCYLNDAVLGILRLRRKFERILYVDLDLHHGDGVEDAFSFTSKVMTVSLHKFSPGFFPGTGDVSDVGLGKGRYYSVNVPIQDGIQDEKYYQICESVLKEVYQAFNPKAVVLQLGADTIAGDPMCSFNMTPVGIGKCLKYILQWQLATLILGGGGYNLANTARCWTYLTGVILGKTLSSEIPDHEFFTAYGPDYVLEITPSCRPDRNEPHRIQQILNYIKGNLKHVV

TYMS [5] = biological target: T1, TYMS; details: raltitrexed 1 µM, 30 min

SMILES: O=c1[nH]cc(F)c(=O)[nH]1 [5-FU, 5-Fluorouracil]
- changes in RNA (tRNA) modifications (tRNA modifications; 4 h): no significant changes
- tRNA modifications Ψ, ncm5U, hm5C, m5U (tRNA modifications; 24 h): significantly downregulated
- stability of RNA post-transcriptional modification enzymes [1]: significantly increased
- TYMS stability, log2FC (TYMS [2]): 2.11

SMILES: Cc1nc(Nc2ncc(C(=O)Nc3c(C)cccc3Cl)s2)cc(N2CCN(CCO)CC2)n1 [dasatinib, Dasatinib]
- stability of LYN's interacting partner CDKN1C (CDKN1C): reduced the stability
- reduction in binding (LYN): more than 50%
- reduction in binding (YES1): more than 50%
- reduction in binding (RIPK2): more than 50%

SMILES: CC(C)(C)c1cnc(CSc2cnc(NC(=O)C3CCNCC3)s2)o1 [SNS-032]
- stability shift of substrate RB1, log2FC (RB1): > 0.5

SMILES: CN(Cc1cnc2nc(N)nc(N)c2n1)c1ccc(C(=O)N[C@@H](CCC(=O)O)C(=O)O)cc1 [MTX, Methotrexate]
- MTR stability, log2FC [3]: −0.38
- MTHFD1 stability [4]: increased stability

SMILES: Cc1[nH]c2ccccc2c1CCNCc1ccc(/C=C/C(=O)NO)cc1 [Panobinostat]
- HDAC2 stability (HDAC2): consistent stabilization
- HDAC6 stability (HDAC6): consistent stabilization
- HDAC3 stability (HDAC3): opposite trends
- HDAC8 target identification (HDAC8): uniquely identified by SICFA

SMILES: Cc1nc2ccc(CN(C)c3ccc(C(=O)N[C@@H](CCC(=O)O)C(=O)O)s3)cc2c(=O)[nH]1 [raltitrexed, Raltitrexed]
- soluble TYMS content vs control (western blot) (TYMS [5]; Jurkat cells, 10% and 12% fixative): markedly higher
- target identification by SICFA LC-MS/MS (TYMS [5]; 10% fixative, pool of 5,534 proteins): leading candidate target
